Assay results from patent US9649313B2, “Use of ITK inhibitors for the treatment of cancer” (The University of North Carolina at Chapel Hill, priority 2012, dated 2017).

Experiments:
[1] = molecular target: T1, phosphorylated (active) form of ITK in RPMI 8322 cells (Homo sapiens, UniProt Q08881); assay: two-dimensional electrophoresis and western blot of ITK isoforms; type: cell-based; settings: RPMI 8322 cells treated for 3 days
T1 construct: endogenous in cells; host or cells: RPMI 8322 human melanoma cells
T1 sequence (Q08881 whole entry, canonical isoform): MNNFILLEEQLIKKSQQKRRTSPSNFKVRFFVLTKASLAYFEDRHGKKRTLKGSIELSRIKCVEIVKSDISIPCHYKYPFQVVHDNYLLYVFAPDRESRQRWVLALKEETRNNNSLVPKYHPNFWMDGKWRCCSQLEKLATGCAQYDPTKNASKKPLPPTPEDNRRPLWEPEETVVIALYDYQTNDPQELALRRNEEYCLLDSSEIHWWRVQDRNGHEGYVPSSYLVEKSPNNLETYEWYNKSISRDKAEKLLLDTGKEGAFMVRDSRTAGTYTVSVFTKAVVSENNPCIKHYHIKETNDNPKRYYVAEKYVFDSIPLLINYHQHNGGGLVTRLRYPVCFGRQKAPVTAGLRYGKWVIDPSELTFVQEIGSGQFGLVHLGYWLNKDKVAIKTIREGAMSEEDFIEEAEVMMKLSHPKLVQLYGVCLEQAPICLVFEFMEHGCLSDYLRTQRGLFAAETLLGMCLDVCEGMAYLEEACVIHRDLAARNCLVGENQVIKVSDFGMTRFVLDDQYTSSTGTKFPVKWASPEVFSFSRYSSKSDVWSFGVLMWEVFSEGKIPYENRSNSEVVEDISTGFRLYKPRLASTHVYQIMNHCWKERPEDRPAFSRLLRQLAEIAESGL
Source text: Therefore, alternatively, we performed two-dimensional electrophoresis on whole cell lysates obtained from RPMI 8322 cells that had been treated with phosphatase or different concentrations of BI 10N for 3 days prior to harvest followed by western blot analysis using the ITK antibody. In untreated RPMI 8322 cells, two charge isoforms that migrated with the appropriate weight for ITK were identified by immunoblot analysis. […] These observations indicate that the formation of the phosphorylated (active) form of ITK is inhibited in the presence of ≧25 nM of BI 10N (data not shown).

cytokine production = settings: anti-CD3 antibody stimulated Balb/c mice; Riether et al., 2009; cited from earlier work
[2] = tested on: PMWK (ITKLO) melanoma cell line; assay: single cell motility assay; type: cell-based, Human
Source text: (§1) FIG. 4A-4E. Effects of ITK knockdown on proliferation and motility of melanoma cells. FIG. 4A) Western of lysates of VMM 39 containing each of the four shRNA constructs using rabbit monoclonal anti ITK (Y401). FIG. 4B) The four shRNA lentiviral constructs were used to transduce three melanoma cell lines, PMWK (ITKLO), VMM 39 (ITKHI), and RPMI 8322 (ITKHI). 50,000 cells were placed into each well of a 6 well plate, which was then counted 3, 5, and 6, or 7 days after plating to assess the proliferation rates of the different cell lines. FIG. 4C) Single Cell Motility assays were performed on three different melanoma cell lines, PMWK, VMM 39, and RPMI 8322. Each melanoma cell line was transduced with the four shRNA lentiviral constructs producing a total of 12 cell lines. 10,000 cells were plated on fibronectin coated glass bottom dishes. Pictures were taken once every 40 minutes for 16 hours. FIG. 4D) Cell cycle analysis of PMWK, VMM 39, and RPMI 8322 cells that have been transduced with various shRNAs. Cells were harvested after 3 hours of incubation with 5-ethynyl-2′-deoxyuridine (EdU). EdU incorporation and DNA content with FxCycle Violet were analyzed using flow cytometry. Illustrated in this panel are the percentages of cells in G0/G1 (low DNA and EdU content), S (high EdU and low-to-medium DNA content), and G2/M (Low EdU and high DNA content). FIG. 4E) Single-cell motility analysis of PMWK, VMM 39, and RPMI 8322 that have been transduced with various shRNAs. At least 50 cells were tracked for each cell line and the average motility rate was determined. Shown with asterisks are the shRNA-transduced melanoma cell lines with significant impairment in motility (P<0.001 one-way ANOVA following Bonferroni adjustments for multiple comparisons).
(§2) FIG. 5A-5C. Effects of BI 10N inhibitor on proliferation and motility of melanoma cells. FIG. 5A) Cell motility assays were performed as described in FIG. 4A-4E; however, the inhibitor BI 10N was added to the media to decrease ITK kinase activity in parental cell lines instead of using the shRNA ITK knockdown cell lines. BI 10N was added to the media 24 hours prior to the start of the motility assay and the VivaView camera system was used to image cellular motility of the melanoma cells as described previously. […] Cells were trypsinized and counted using the Invitrogen Countess. […] The cells were counted with the Invitrogen Countess at 3, 5, and 6 or 7 days after plating to assess the proliferation rates of the different cell lines in the presence of BI 10N. […] Following 3 days of BI 10N treatment, the cells were incubated with EdU for 3 hours and were subsequently assessed for 5-ethynyl-2′-deoxyuridine (EdU) incorporation rate and DNA content with FxCycle Violet. […]

[3] = tested on: VMM 39 (ITKHI) melanoma cell line; assay: single cell motility assay; type: cell-based, Human; settings: VMM39; 10-25 nM
Source text: as §1, §2

[4] = tested on: RPMI 8322 (ITKHI) melanoma cell line; assay: single cell motility assay; type: cell-based, Human; settings: 10-25 nM
Source text: as §1, §2

[5] = tested on: ERK and AKT activation status in RPMI 8322 cells; assay: western blot of ERK and AKT activation; type: cell-based, Human; settings: concentrations as high as 50 nM, 3 days
Procedure: (§3) FIG. 9. Western blots of phospho-ERK and phospho-AKT.
(§4) To investigate the impact of ITK inhibition by BI 10N on the ERK and AKT signaling pathways, which are frequently misregulated in melanoma, the ITKHI melanoma cell lines (VMM 39 and RPMI 8322) were grown in the presence of increasing BI 10N concentrations. Western blot analysis was performed on whole cell lysates from these cells using antibodies against ERK, pERK^Thr202/Tyr204, AKT, and pAKT^Ser473.

[6] = tested on: ERK and AKT activation status in VMM 39 cells; assay: western blot of ERK and AKT activation; type: cell-based, Human; settings: concentrations as high as 50 nM, 3 days
Procedure: as §3, §4

concentration at which formation of the phosphorylated (active) form of ITK is inhibited [1]: ≥ 25 nM
SMILES: CC(C)C(C)CNCc1ccc2c(c1)[nH]/c(=N\C(=O)c1ccc(C3=CN=NC3)s1)n2CC(C)(C)O (centres unmarked) [BI 10N]
cytokine production in vivo (cytokine production): decrease cytokine production
concentration required for smaller changes in migration [2]: ≥ 150 nM
effect on migration ([2]; 10-25 nM): do not decrease
decrease in migration [3]: about 50%
decrease in migration [4]: about 50%
activation status of ERK and AKT [5]: No significant effects
activation status of ERK and AKT [6]: No significant effects
